Holding throughout (experiment): inhibition of tumour cell growth, NCI panel, 48 h
Assay [1] concerns NCI-H23.
Assay [2] relates to HCC 2998.
In assay [3] the test system is DU-145.
The test system of assay [4] is HOP-92.
In assay [5] the test system is HL-60.
The test system of assay [6] is KM12.
The test system of assay [7] is HCT-15.
For assay [8], the system named is OVCAR-5.
For assay [9], the system named is SNB-19.
The subject of assay [10] is SF-539.
Assay [11] concerns Malme-3M.
Assay [12] has as its system M14.
Assay [13] concerns MDA-MB-231.
The subject of assay [14] is OVCAR-3.
Assay [15] has as its system UACC-62.
The subject of assay [16] is K562.
The subject of assay [17] is SK-MEL-5.
The test system of assay [18] is RPMI-8226.
For assay [19], the system named is NCI-H522.

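All cell lines were grown in 96-well plates and treated with compound for 48 hours. At the GI50, growth is halved.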 Calls of active or inactive are those of the source. Rule as the data show it: active = GI50 up to about 1.1 µM and inactive = higher. Some results are limits rather than exact numbers.

Consider `CCOC(=O)C[n+]1cccc(C2(c3cc4ccccc4[nH]3)OCCO2)c1`, for which the GI50 in assay [1], in assay [2], in assay [3], in [4], in assay [5] and in assay [6] was > 100 µM (inactive) in each case. Moreover, the GI50 was over 100 µM in assay [7]; > 100 µM (inactive) in assay [8]; > 100 µM (inactive) in [9]; > 100 µM (inactive) in [10]; > 100 µM (inactive) in assay [11]; > 100 µM (inactive) in assay [12]. The GI50 in assay [13], in [14], in assay [15], in assay [16], in assay [17] and in assay [18] was > 100 µM (inactive) in each case.

Consider `C=CCC(C)C12CCNC(Cc3ccc(O)cc31)C2C` (centres undefined), for which the GI50 in assay [1] was > 100 µM (inactive); in assay [2] it was 51.1 µM (inactive); in assay [3], > 100 µM (inactive); in assay [4] it was 56.1 µM (inactive); in assay [5], > 10 µM (inactive); in assay [6], > 100 µM (inactive). Further, the GI50 in [7] was over 100 µM; in assay [8] it was > 100 µM (inactive); in assay [9], > 100 µM (inactive); in assay [10] it was > 100 µM (inactive); in assay [11], > 100 µM (inactive); in assay [12], 64.4 µM (inactive). In addition, the GI50 is > 100 µM (inactive) in [13]; > 100 µM (inactive) in [15]; 41.3 µM (inactive) in [16]; > 100 µM (inactive) in [17]; > 100 µM (inactive) in [18].

For the compound `NC1C2(CCCCCC2)NC(=O)C12CCCCCC2` (centres undefined), the GI50 in [1] was > 100 µM (inactive); in [19] it was > 100 µM (inactive); in assay [4], > 100 µM (inactive); in [5] it was > 100 µM (inactive); in assay [6], > 100 µM (inactive); in assay [7] it was over 100 µM. The GI50 in assay [8], in assay [9], in assay [10], in [11], in assay [12] and in assay [14] was > 100 µM (inactive) throughout. Also, the GI50 in assay [15], in assay [16] and in assay [17] was > 100 µM (inactive) in each case.

For `CC(=O)Nc1[nH]n(C)c(=O)c1-c1nnc(C)s1`, the GI50 in assay [1], in [2], in [19], in assay [4], in [5] and in assay [6] was > 100 µM (inactive) in each case. The GI50 is over 100 µM in assay [7]; > 100 µM (inactive) in assay [8]; > 100 µM (inactive) in [9]; > 100 µM (inactive) in assay [10]; > 100 µM (inactive) in assay [11]; > 100 µM (inactive) in [12]. Also, the GI50 in assay [14], in [16], in assay [17] and in assay [18] was > 100 µM (inactive) throughout.

`COc1ccc([N+]2=NC(c3ccc([N+](=O)[O-])cc3)=NN(c3ccccc3)C2)cc1`: the GI50 was 55.8 µM (inactive) in assay [1]; > 100 µM (inactive) in assay [2]; 2.69 µM (inactive) in assay [19]; 18.6 µM (inactive) in assay [5]; 24.8 µM in assay [7]; > 100 µM (inactive) in assay [8]. Besides, the GI50 in assay [9] is 71.9 µM (inactive); in assay [11], > 100 µM (inactive); in assay [14], 42.5 µM (inactive); in assay [16], 21 µM (inactive); in [17], 21 µM (inactive); in [18] it was 24.7 µM (inactive).

With `c1ccc2c(c1)ccc1nc3ccccn3c12`, the GI50 in assay [1], in assay [2], in [3], in assay [4], in assay [5] and in assay [6] was > 100 µM (inactive) throughout. Further, the GI50 is over 100 µM in assay [7]; > 100 µM (inactive) in assay [8]; > 100 µM (inactive) in [9]; > 100 µM (inactive) in assay [10]; > 100 µM (inactive) in [11]; > 100 µM (inactive) in [12]. Also, the GI50 in [14] was > 100 µM (inactive); in assay [15] it was > 100 µM (inactive); in assay [16], > 100 µM (inactive); in [17], 89.7 µM (inactive); in assay [18] it was > 100 µM (inactive).

On to `Cc1nc2c(=O)n(-c3ccccc3)c(=O)n(-c3ccccc3)c2o1`, for which the GI50 was > 100 µM (inactive) in [1]; > 100 µM (inactive) in assay [2]; > 100 µM (inactive) in [19]; > 100 µM (inactive) in [4]; > 100 µM (inactive) in assay [6]; over 100 µM in [7]. For the same compound, the GI50 in assay [8], in [9], in assay [10], in assay [11], in assay [12] and in assay [13] was > 100 µM (inactive) throughout. Moreover, the GI50 in assay [14], in assay [15], in assay [16], in [17] and in assay [18] was > 100 µM (inactive) in each case.

In the case of `CC(O)c1c2c(cc3c1CC1(C3)Cc3cc4c(c(C(C)O)c3C1)CCC4)CCC2` (centres undefined), the GI50 was 15.5 µM (inactive) in assay [1]; 17.3 µM (inactive) in assay [2]; 13.1 µM (inactive) in assay [19]; 15.3 µM (inactive) in [4]; 4.76 µM (inactive) in assay [5]; 21.8 µM (inactive) in [6]. Besides, the GI50 was 14.8 µM in [7]; 22.5 µM (inactive) in [8]; 22.4 µM (inactive) in [10]; 15.9 µM (inactive) in assay [11]; 18.6 µM (inactive) in [12]; 16.8 µM (inactive) in assay [13]. Further, the GI50 in assay [14] is 12.4 µM (inactive); in [15], 19.3 µM (inactive); in [16] it was 9.59 µM (inactive); in assay [17] it was 13 µM (inactive); in assay [18] it was 12.6 µM (inactive).

Take `O=c1cc(NCC2CCCCC2)[nH]c(=O)[nH]1`: the GI50 was > 100 µM (inactive) in [1]; > 100 µM (inactive) in [2]; > 100 µM (inactive) in [3]; 95.1 µM (inactive) in assay [4]; > 100 µM (inactive) in assay [5]; > 100 µM (inactive) in [6]. Moreover, the GI50 was over 100 µM in assay [7]; > 100 µM (inactive) in assay [8]; > 100 µM (inactive) in assay [9]; > 100 µM (inactive) in [10]; > 100 µM (inactive) in assay [11]; > 100 µM (inactive) in [12]. Besides, the GI50 in assay [13], in [14], in assay [16], in assay [17] and in [18] was > 100 µM (inactive) in each case.

With `COC(=O)c1c(O)ccc2c1c1c(n2CCc2ccccc2)C(=O)c2ccccc2C1`, the GI50 is 20.7 µM (inactive) in assay [1]; 31.8 µM (inactive) in [3]; 10.9 µM (inactive) in [4]; 28.9 µM (inactive) in [5]; 31.8 µM (inactive) in [6]; 19.7 µM in [7]. The GI50 in [9] is 24.8 µM (inactive); in [10], 24.8 µM (inactive); in assay [11], 32.3 µM (inactive); in assay [12] it was 22.3 µM (inactive); in assay [13] it was 19.5 µM (inactive); in assay [14] it was 16.1 µM (inactive). Also, the GI50 in assay [15] is 14.4 µM (inactive); in assay [16], 37.6 µM (inactive); in assay [17], 17.6 µM (inactive); in [18], 11.7 µM (inactive).

In the case of `O=C(CN1C(=O)c2ccccc2C1=O)OCC1CCCN2CCCCC12` (centres undefined), the GI50 in assay [1], in [2], in assay [3], in assay [4], in assay [5] and in [6] was > 100 µM (inactive) throughout. Also, the GI50 is over 100 µM in assay [7]; > 100 µM (inactive) in [9]; > 100 µM (inactive) in [10]; > 100 µM (inactive) in assay [11]; > 100 µM (inactive) in assay [13]; > 100 µM (inactive) in [15]. The GI50 in assay [16], in assay [17] and in [18] was > 100 µM (inactive) each time.

As for `[N-]=[N+]=Nc1c(N2CCOCC2)c(Cl)nc2ccccc12`, the GI50 in [1] is 30.7 µM (inactive); in assay [2] it was 92.7 µM (inactive); in assay [19] it was 29.7 µM (inactive); in assay [4], 46.7 µM (inactive); in [5], 66.1 µM (inactive); in assay [6], 27 µM (inactive). Also, the GI50 in assay [7] was 46.6 µM; in assay [8], > 100 µM (inactive); in assay [9], > 100 µM (inactive); in [10], 65.5 µM (inactive); in assay [11], 41.5 µM (inactive); in assay [12], 37.4 µM (inactive). The GI50 in [13] is 23.1 µM (inactive); in assay [14], 43.5 µM (inactive); in assay [16], 37.6 µM (inactive); in [17], 20.7 µM (inactive); in [18], 74 µM (inactive).

Take `CC1(C)C2CCC(N)(C2)C1N` (centres undefined): the GI50 is > 100 µM (inactive) in assay [1]; > 100 µM (inactive) in [2]; > 100 µM (inactive) in assay [3]; 21.1 µM (inactive) in assay [4]; 22.3 µM (inactive) in [5]; > 100 µM (inactive) in assay [6]. Besides, the GI50 in assay [7] is over 100 µM; in assay [8], > 100 µM (inactive); in assay [9] it was > 100 µM (inactive); in assay [12], > 100 µM (inactive); in [14] it was > 100 µM (inactive); in assay [15], > 100 µM (inactive). In addition, the GI50 in assay [16], in [17] and in assay [18] was > 100 µM (inactive) in each case.

Source of the values: ChEMBL document CHEMBL1201862, “PubChem BioAssay data set” (2004).
